Patent publication US11517508B2, “Composition for single-paste type hydraulic endodontic filling material comprising dimethyl sulfoxide” (MARUCHI, priority 2016, dated 2022)

System: MC3T3-E1 cells
Assay: Cytotoxicity test (MTT) of solvents, material extracts on MC3T3-E1 cells
Type: cell-based
Details: p<0.05, FIG. 1
Description: FIG. 1 is a graph of a cytotoxicity test according to one embodiment of the invention. The test will be described with reference to FIG. 1.
A: NMP, B: DMSO, C: DEGEE, and D: DMSO 80%+DEGEE 20%
Cytotoxicity was measured with respect to the above four kinds of solvents by the following method:
(i) A specimen was placed in a mold with a thickness of 2 mm and a diameter of 10 mm, and hardened in an incubator at 37° C. for 3 days. (ii) A material extract was derived by filling the hardened specimen with a medium at a surface area/medium ratio of 0.5 cm^2 per ml and incubating it at 37° C. for 3 days. (iii) 1.5×10^4 MC3T3-E1 cells were seeded per well on a 24-well culture plate and incubated for 24 hours, and then the medium was sucked off. 1 ml of the material extract was placed in each well and set in triplicate. (iv) The material extracts were incubated for 24 hours, 48 hours and 72 hours, respectively, and then the medium was discarded. The material extracts were treated with 200 μl of 0.05% MTT solution, wrapped in aluminum foil, and reacted in the incubator at 37° C. for 2 hours. (v) 200 μl of DMSO was added after the reaction. Then, 200 μl of the reaction solution was transferred to each well in a 96-well plate and absorbance was measured at 590 nm.

[1] = all tests and all times (24, 48, 72 hours), compared with NMP groups

`C[S+](C)[O-]` [DMSO, dimethyl sulfoxide] was tested, and the cell survival rate (48 hours and 72 hours, comparison between solvent groups) was “significantly higher cell survival rate than groups for which DEGEE and a mixture of DMSO and DEGEE were used as solvents” and the cell survival rate [1] was “higher cell survival rate than groups for which NMP was used as a solvent”.
With `CCOCCOCCO` [DEGEE, diethylene glycol monoethyl ether, reference compound] the cell survival rate [1] was “higher cell survival rate than groups for which NMP was used as a solvent”.
